From ChEMBL document CHEMBL4219121, “Synthesis, antitumor activity and DNA binding features of benzothiazolyl and benzimidazolyl substituted isoindolines” (Bioorg Med Chem, 2018)
Calls of active or inactive are those of the source. No cut-off for these calls is given here.

Legend:
Calf thymus DNA [1] = experiment: Binding affinity to calf thymus DNA assessed as change in melting temperature at drug/DNA ratio of 1 by spectrophotmetric method; format: nucleic-acid assay; conditions: Bos taurus
HeLa [2] = experiment: Induction of apoptosis in human HeLa cells assessed as phenotypic changes after 24 to 48 hrs by microscopic analysis; format: functional, cell-based
Calf thymus DNA [3] = experiment: Binding affinity to calf thymus DNA at 1 to 50 uM by circular dichroism spectral analysis; format: nucleic-acid assay; conditions: Bos taurus
SW-620 [4] = experiment: Cell cycle arrest in human SW620 cells assessed as accumulation at subG1 phase at 0.5 uM after 48 hrs by propidium iodide staining based flow cytometric method (reference value: 4.1 to 11.3 %); format: functional
MCF7 = experiment: Antiproliferative activity against human MCF7 cells after 72 hrs by MTT assay; format: functional, cell-based; conditions: MCF7, 72 h
SW-620 [5] = experiment: Induction of apoptosis in human SW620 cells assessed as activation of caspase-8 at 0.5 uM after 24 to 48 hrs by colorimetric assay; format: functional, cell-based
SW-620 [6] = experiment: Induction of apoptosis in human SW620 cells assessed as activation of caspase-2 at 0.5 uM measured after 48 hrs by colorimetric assay; format: functional, cell-based
SW-620 [7] = experiment: Cell cycle arrest in human SW620 cells assessed as accumulation at subG1 phase at 1 uM after 48 hrs by propidium iodide staining based flow cytometric method (reference value: 4.1 to 11.3 %); format: functional
Calf thymus DNA [8] = experiment: Binding affinity to calf thymus DNA assessed as change in melting temperature at drug/DNA ratio of 0.25 by spectrophotmetric method; format: nucleic-acid assay; conditions: Bos taurus
[9] = Drug uptake in cytoplasm of human Caki2 cells at 50 uM measured after 5 hrs by Phalloidin CruzFluorTM 488 conjugate/propidium iodide staining based fluorescence microscopic analysis; format: ADME, subcellular; conditions: caki-2, 5 h
[10] = Drug uptake in nucleus of human Caki2 cells at 50 uM measured after 5 hrs by Phalloidin CruzFluorTM 488 conjugate/propidium iodide staining based fluorescence microscopic analysis; format: ADME, subcellular; conditions: caki-2, 5 h
SW-620 [11] = experiment: Induction of apoptosis in human SW620 cells assessed as phenotypic changes after 24 to 48 hrs by microscopic analysis; format: functional, cell-based
HeLa [12] = experiment: Cell cycle arrest in human HeLa cells assessed as accumulation at subG1 phase at 1 uM after 48 hrs by propidium iodide staining based flow cytometric method (reference value: 17 to 20.1 %); format: functional
SW-620 [13] = experiment: Antiproliferative activity against human SW620 cells after 72 hrs by MTT assay; format: functional, cell-based; conditions: SW-620, 72 h
Calf thymus DNA [14] = experiment: Binding affinity to calf thymus DNA assessed as change in melting temperature at drug/DNA ratio of 0.5 by spectrophotmetric method; format: nucleic-acid assay; conditions: Bos taurus
HeLa [15] = experiment: Cell cycle arrest in human HeLa cells assessed as accumulation at subG1 phase at 0.5 uM after 48 hrs by propidium iodide staining based flow cytometric method (reference value: 17 to 20.1 %); format: functional
HeLa [16] = experiment: Induction of apoptosis in human HeLa cells assessed as activation of caspase-8 at 0.5 uM after 24 to 48 hrs by colorimetric assay; format: functional, cell-based
HeLa [17] = experiment: Antiproliferative activity against human HeLa cells after 72 hrs by MTT assay; format: functional, cell-based
SW-620 [18] = experiment: Induction of apoptosis in human SW620 cells assessed as activation of caspase-6 at 0.5 uM measured after 48 hrs by colorimetric assay; format: functional, cell-based
HepG2 = experiment: Antiproliferative activity against human HepG2 cells after 72 hrs by MTT assay; format: functional, cell-based; conditions: HepG2, 72 h
[19] = biological target: DNA topoisomerase 2-alpha (Homo sapiens) (UniProt P11388); experiment: Poison activity at human topoisomerase2 assessed as accumulation of linear DNA at 10 to 50 uM using supercoiled pUC19 as substrate pretreated with substrate for 45 mins followed by […] measured by ethidium bromide staining based agarose gel electrophoresis
DNA topoisomerase 2-alpha (Homo sapiens), sequence (P11388 whole entry): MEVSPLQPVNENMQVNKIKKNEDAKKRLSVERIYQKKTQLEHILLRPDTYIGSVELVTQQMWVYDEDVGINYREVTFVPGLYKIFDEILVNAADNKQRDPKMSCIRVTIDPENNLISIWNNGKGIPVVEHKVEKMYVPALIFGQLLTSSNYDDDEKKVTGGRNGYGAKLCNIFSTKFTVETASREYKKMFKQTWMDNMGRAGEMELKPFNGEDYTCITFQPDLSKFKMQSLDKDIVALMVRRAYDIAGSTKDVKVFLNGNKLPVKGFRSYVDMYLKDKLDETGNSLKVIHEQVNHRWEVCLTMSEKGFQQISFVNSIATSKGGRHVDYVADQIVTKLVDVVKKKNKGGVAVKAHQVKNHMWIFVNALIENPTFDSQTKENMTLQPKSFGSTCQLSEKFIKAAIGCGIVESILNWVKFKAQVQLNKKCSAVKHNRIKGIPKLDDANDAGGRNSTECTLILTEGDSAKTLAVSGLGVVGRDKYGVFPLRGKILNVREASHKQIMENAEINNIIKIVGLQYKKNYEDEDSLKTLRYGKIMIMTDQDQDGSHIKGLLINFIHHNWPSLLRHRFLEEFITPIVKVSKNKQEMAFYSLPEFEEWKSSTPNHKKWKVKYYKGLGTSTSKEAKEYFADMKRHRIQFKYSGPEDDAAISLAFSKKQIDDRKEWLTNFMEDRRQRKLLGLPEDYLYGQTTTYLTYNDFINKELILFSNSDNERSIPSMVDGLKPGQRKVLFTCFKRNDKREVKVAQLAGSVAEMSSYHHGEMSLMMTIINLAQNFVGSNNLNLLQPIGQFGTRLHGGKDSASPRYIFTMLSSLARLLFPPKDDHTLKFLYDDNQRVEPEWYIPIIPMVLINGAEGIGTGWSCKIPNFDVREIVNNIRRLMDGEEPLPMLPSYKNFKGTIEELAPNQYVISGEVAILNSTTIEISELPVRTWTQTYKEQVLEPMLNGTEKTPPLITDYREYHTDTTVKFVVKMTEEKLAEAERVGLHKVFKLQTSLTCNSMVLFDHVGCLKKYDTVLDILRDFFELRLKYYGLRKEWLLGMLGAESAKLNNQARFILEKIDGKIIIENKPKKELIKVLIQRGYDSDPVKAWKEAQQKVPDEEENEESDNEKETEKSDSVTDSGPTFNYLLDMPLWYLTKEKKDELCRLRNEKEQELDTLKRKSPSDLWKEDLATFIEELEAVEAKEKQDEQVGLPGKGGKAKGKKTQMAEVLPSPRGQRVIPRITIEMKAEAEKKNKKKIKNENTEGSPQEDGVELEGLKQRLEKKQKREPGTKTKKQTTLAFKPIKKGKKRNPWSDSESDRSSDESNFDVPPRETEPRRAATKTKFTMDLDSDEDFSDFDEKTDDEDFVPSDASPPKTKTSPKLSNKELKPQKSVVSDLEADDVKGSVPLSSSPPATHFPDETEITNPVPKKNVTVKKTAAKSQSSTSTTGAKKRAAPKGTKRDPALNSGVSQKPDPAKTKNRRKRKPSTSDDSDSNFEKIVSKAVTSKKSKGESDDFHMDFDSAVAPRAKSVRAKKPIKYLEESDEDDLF

CAKI-2 = experiment: Cytotoxicity against human Caki2 cells after 72 hrs by MTT assay; format: functional, cell-based; conditions: CAKI-2, 72 h
[20] = Drug uptake in human Caki2 cells at 50 uM measured after 5 hrs by Phalloidin CruzFluorTM 488 conjugate/propidium iodide staining based fluorescence microscopic analysis; format: ADME, cell-based; conditions: caki-2, 5 h
BJ = experiment: Antiproliferative activity against human BJ cells after 72 hrs by MTT assay; format: cell-based
SW-620 [21] = experiment: Cell cycle arrest in human SW620 cells assessed as accumulation at subG1 phase at 0.5 to 1 uM after 24 hrs by propidium iodide staining based flow cytometric method; format: functional
HeLa [22] = experiment: Cell cycle arrest in human HeLa cells assessed as accumulation at subG1 phase at 0.5 to 1 uM after 24 hrs by propidium iodide staining based flow cytometric method; format: functional
[23] = biological target: T1, DNA topoisomerase 1 (Homo sapiens) (UniProt P11387); experiment: Inhibition of human topoisomerase1-mediated DNA relaxation assessed as DNA intercalation at 5 to 50 uM using supercoiled pUC19 as substrate pretreated with substrate for 45 mins followed by enzyme addition measured by agarose gel electrophoresis
T1 sequence (whole entry): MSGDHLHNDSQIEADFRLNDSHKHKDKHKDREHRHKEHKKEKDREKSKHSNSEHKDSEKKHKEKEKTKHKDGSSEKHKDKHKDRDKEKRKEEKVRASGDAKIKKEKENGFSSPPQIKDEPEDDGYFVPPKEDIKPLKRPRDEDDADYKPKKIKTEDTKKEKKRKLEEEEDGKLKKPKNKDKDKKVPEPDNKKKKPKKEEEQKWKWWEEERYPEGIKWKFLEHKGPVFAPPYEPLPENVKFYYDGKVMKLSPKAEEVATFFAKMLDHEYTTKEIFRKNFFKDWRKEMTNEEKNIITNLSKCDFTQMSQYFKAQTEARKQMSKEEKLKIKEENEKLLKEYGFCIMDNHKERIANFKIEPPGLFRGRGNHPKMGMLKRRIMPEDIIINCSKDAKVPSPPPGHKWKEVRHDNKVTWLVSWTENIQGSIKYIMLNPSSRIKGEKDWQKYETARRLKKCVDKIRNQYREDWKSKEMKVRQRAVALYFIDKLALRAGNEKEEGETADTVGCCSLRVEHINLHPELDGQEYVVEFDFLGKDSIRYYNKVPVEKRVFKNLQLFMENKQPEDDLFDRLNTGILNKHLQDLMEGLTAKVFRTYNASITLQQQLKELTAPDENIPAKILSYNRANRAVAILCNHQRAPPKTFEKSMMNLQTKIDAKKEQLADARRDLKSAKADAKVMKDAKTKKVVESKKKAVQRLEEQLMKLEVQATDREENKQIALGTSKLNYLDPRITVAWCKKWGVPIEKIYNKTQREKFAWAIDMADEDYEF

[24] = biological target: T1, DNA topoisomerase 1 (Homo sapiens); experiment: Poison activity at human topoisomerase1 assessed as accumulation of nicked DNA at 20 uM using supercoiled pUC19 as substrate pretreated with substrate for 45 mins followed by enzyme addition measured by agarose gel electrophoresis relative to control
[25] = Drug uptake in nucleolus of human Caki2 cells at 50 uM measured after 5 hrs by Phalloidin CruzFluorTM 488 conjugate/propidium iodide staining based fluorescence microscopic analysis; format: ADME, subcellular; conditions: caki-2, 5 h

Row | Activity (Calf thymus DNA [3]) | IC50 (MCF7) [µM] | ΔTm (Calf thymus DNA [8]) [°C] | Drug uptake [10] | IC50 (SW-620 [13]) [µM] | ΔTm (Calf thymus DNA [14]) [°C] | IC50 (HeLa [17]) [µM] | IC50 (HepG2) [µM] | Drug uptake [20] | Structure (SMILES) | IC50 (CAKI-2) [µM] | IC50 (BJ) [µM] | also measured
1 | Active | 0.36 | 1.2 | Active | 0.15 | 3.2 | 0.32 | 0.34 | Active | CC(C)NC(=N)c1ccc2nc(N3Cc4ccccc4C3=O)sc2c1.Cl | 0.75 | 0.05 | ΔTm (Calf thymus DNA [1]): 4.4 °C; Activity (HeLa [2]): Active; Activity (SW-620 [4]): 33.9%; Activity (SW-620 [5]): inactive; Activity (SW-620 [6]): Active; Activity (SW-620 [7]): 59.9%; Drug uptake [9]: Active; Activity (SW-620 [11]): Active; Activity (HeLa [12]): 38.1%; Activity (HeLa [15]): 45.7%; Activity (HeLa [16]): inactive; Activity (SW-620 [18]): Active; Activity [19]: Active; Activity (SW-620 [21]): inactive; Activity (HeLa [22]): inactive
2 | Active | 23.4 | 9.3 | Active | 35 | 18.5 | 15.4 | 9.01 | Active | Cl.Cl.c1ccc2c(c1)CN(c1nc3ccc(C4=NCCN4)cc3[nH]1)/C2=N/c1nc2ccc(C3=NCCN3)cc2[nH]1 | 80.2 | 22.9 | inhibition (qualitative) [23]: Active; fold change (FC) [24]: 1.8; Drug uptake [25]: Active
